Assays:
[1] = test system: Mutant PNPLA3-Expressing HepG2 Cells (GFP-PNPLA3 (1148>M)); experiment: Cellular model of NAFLD: gel assay for mutant PNPLA3-expressing HepG2 cells; assay type: cell-based; conditions: HepG2 cells transfected with GFP-PNPLA3 (1148>M), 24 hours
Description: Method: HepG2 cells were transfected with GFP-PNPLA3 (1148>M) overexpression plasmid using Lipofectamine LTX in DMEM media supplied with 1% Oleic Acid-BSA and were left overnight. The next day, cells were trypsinated and were seeded in a 96-well plate in DMEM media supplied with 1% Oleic Acid-BSA. After 7 hours, media was changed to standard DMEM supplied with the compound of interest. After 24 hours, cells were washed once with PBS and were lysed in RIPA buffer. Lysates were collected, centrifuged and the supernatants were mixed with Laemmli buffer (without DTT or boiling) and were loaded on a 4-20% SDS-PAGE gel. After electrophoresis, gels were directly imaged in the FITC channel to visualise the GFP signal.

[2] = test system: adult human dermal fibroblast cells (HDFa cells); experiment: Acidic vesicle formation in adult human dermal fibroblast cells; assay type: cell-based; conditions: concentration of 10 μM
From the text: This is evidence for significant stimulation of autophagy by this compound under these conditions.

[3] = test system: Human osteosarcoma U20S cells; experiment: Assay to measure lysosome and autolysosome formation (acidic vesicle formation, LysoView/LysoTracker staining); assay type: cell-based; conditions: U20S cells
Procedure, shortened: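 U2OS cells treated with compounds in DMSO for 24 h, then stained 45 min at 37 °C with 1× LysoView 633 or 50 nM LysoTracker Deep Red, with Hoechst nuclear counterstain. Live-cell fluorescence imaging at 37 °C; acidic vesicle formation judged against DMSO-treated control.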

ZIKV = experiment: Infectivity assay ZIKV in SH-SY5Y cells; assay type: cell-based; conditions: Zika virus, MOI 5, 48 h, E staining
Description: (§1) Cells were seeded in 96 well plates and the following day pre-treated with a 3-fold serial dilution of compound starting from 20 μM, in 100 μL of assay media. 24 hours later, cells were infected (without removing the media) with ZIKV or HCMV at a multiplicity of infection (MOI) compatible with multiple rounds of virus replication. DMSO-treated infected and uninfected cells were included as positive and negative controls. [table]

SH-SY5Y = experiment: Cytotoxicity assay (MTT) parallel to ZIKV infectivity assay; assay type: cell-based; parameters: key: A “—” symbol indicates no inhibition; conditions: SH-SY5Y cells, 48 h
Description: (§2) In parallel to the infectivity assays, in order to determine the cytotoxic properties of the compound, cells were seeded in 96 well plates and the following day pre-treated with the same serial dilutions of compound in 100 μl of assay media. The compound was left on the cells for the duration of the infectivity assays, after which a metabolic assay (MTT assay) was used to determine cell viability compared to a DMSO-treated control.

[4] = test system: Differentiated hepatocyte GSD1A disease model cells; experiment: iPSC model of glycogen storage disease type 1A: glycogen and triglyceride quantification; assay type: cell-based, human; conditions: hepatocytes differentiated from GSD1A patient derived iPSCs, 10 μM
Description: Timetable for Treatment of Cells with the Compounds: • Day 1. Differentiated hepatocyte GSD1A disease model cells (DefiniGEN Ltd) were cultured in a collagen I coated 48-well plate. Empty wells were filled with PBS. • Day 9. The racemic mixture of compounds 170 and 171 (as a solution in DMSO) was added to the disease model cells • Day 11. Media for disease model cells was replaced with fresh media with compound. • Day 12. Cells were washed once in PBS and once in HBSS and 30 μL of NP40 Lysis buffer supplied with Phosphatase and Protease inhibitor cocktail was added to each well. Plate was immediately placed on dry ice. […]
Protein quantification: An aliquot of the lysates was used for protein quantification using BCA.
Glycogen quantification: An aliquot of the lysates was boiled at 96° C. for 5 minutes. […] Supernatant was used for Glycogen quantification using MAK016 kit (Merck), following manufacturer's instructions. […] 8 μL of Hydrolysis buffer from the kit was added to one aliquot from each sample (-HE; to quantify free glucose content of the lysate). The other sample was supplied with 8 μL of Hydrolysis buffer supplied with Hydrolysis Enzyme (+HE; to quantify free glucose+glycogen content of the lysate). After 30 minutes of incubation at room temperature, 10 μL of probe mix was added to each well and the absorbance at 570 nm was measured after 30 minutes incubation at room temperature. […]

HCMV = experiment: Infectivity assay HCMV in HFF cells; assay type: cell-based, Human Cytomegalovirus (HCMV); conditions: Human betaherpesvirus 5, 360 h, MOI 1, 15 days, gB staining
Description: as §1

[5] = Cytotoxicity assay (MTT) parallel to HCMV infectivity assay; assay type: cell-based; conditions: human, HFF cells, read-out: HCMV TC50
Description: as §2

[6] = test system: dopaminergic Tyrosine hydroxylase (TH)-positive neurons injured with MPTP; experiment: Cellular model of Parkinson's disease (MPTP/MPP+ injury of primary mesencephalic neurons); assay type: cell-based, Rat; conditions: concentrations of 10 μM
From the text: This model (run by Neuro-Sys SAS, France) is based on a primary culture of dopaminergic Tyrosine hydroxylase (TH)-positive neurons injured with the dopaminergic neurons-specific toxin (DA-toxin) 1-methyl-4-phenyl-1,2,3,6 tetrahydropyridine (MPTP, a prodrug of MPP*) (Dauer and Przedborski, 2003). Any substances reducing DA-toxin neurotoxicity may be useful as a new therapeutic agent for the treatment or prevention of PD.
Primary culture of mesencephalic neurons: Rat dopaminergic neurons were cultured as described by Visanji et al., 2008 and Callizot et al., 2019. Briefly, pregnant female rat (Wistar) of 15 days of gestation were killed using a deep anesthesia with CO2 chamber and a cervical dislocation. The midbrains obtained from 15-day-old rat embryos (Janvier, France) were dissected under a microscope. The embryonic midbrains will be removed and placed in ice-cold medium of Leibovitz (L15) containing 2% of Penicillin-Streptomycin (PS) and 1% of bovine serum albumin (BSA). The ventral portion of the mesencephalic flexure, a region of the developing brain rich in dopaminergic neurons, was used for the cell preparations.
The midbrains were dissociated by trypsinisation for 20 min at 37° C. (solution at a final concentration of 0.05% trypsin and 0.02% EDTA). The reaction was stopped by the addition of Dulbecco's modified Eagle's medium (DMEM) containing DNAase I grade II (0.5 mg/mL) and 10% of foetal calf serum (FCS). Cells were then mechanically dissociated by 3 passages through a 10 ml pipette. Cells were then centrifuged at 180×g for 10 min at +4° C. on a layer of BSA (3.5%) in L15 medium. The supernatant was discarded and the cell pellets re-suspended in a defined culture medium consisting of Neurobasal supplemented with B27 (2%), L-glutamine (2 mM) and 2% of PS solution and 10 ng/mL of Brain-derived neurotrophic factor (BDNF) and 1 ng/mL of Glial-Derived Neurotrophic Factor (GDNF). Viable cells were counted in a Neubauer cytometer using the trypan blue exclusion test. The cells were seeded at a density of 40,000 cells/well in 96 well-plates (pre-coated with poly-L-lysine) and maintained in a humidified incubator at 37° C. in 5% CO2/95% air atmosphere. Half of the medium was changed every 2 days with fresh medium. The wells of first and last lines and columns […] (to avoid any edge effect) and were be filled with sterile water.
Test compounds and MPTP: • i) Pre-incubation. On day 6 of culture, the test compounds were dissolved in PBS or DMSO and incubated for 1 hour before the MPTP exposure. • ii) Injury. One hour after the application of test compound, MPTP was added to a final concentration of 4 μM, diluted in control medium still in presence of compounds/inhibitors for 48h. Test compounds were tested on one culture in 96-well plate (n=6 culture wells per condition).
Immunostaining: TH and α-Synuclein. 48 Hours after intoxication, the cell culture supernatant was removed, and the cells were fixed by a solution of 4% paraformaldehyde in PBS, pH=7.3 for 20 min at room temperature. The cells were washed twice in PBS, and then permeabilized. Non-specific sites were blocked with a solution of PBS containing 0.1% of saponin and 1% FCS for 15 min at room temperature. The cultures were incubated with: (a) monoclonal anti-Tyrosine Hydroxylase (TH) antibody produced in mouse at dilution of 1/10000 in PBS containing 1% FCS, 0.1% saponin, for 2 hours at room temperature, and (b) polyclonal anti-alpha synuclein (α-synuclein) antibody produced in rabbit at dilution of 1/200 in PBS containing 1% FCS, 0.1% saponin, for 2 h at room temperature.
Automatic computer analysis. For each condition, 20 pictures (representing the whole well area) were automatically taken using ImageXpress® (Molecular Devices) at 10× magnification (20 pictures, for TH and α-synuclein into TH neurons) using the same acquisition parameters. From images, analyses was directly and automatically performed by MetaXpress® (Molecular Devices).

SMILES | fold increase in GFP breakdown Bafilomycin-sensitive-product signal versus an inactive control [1] | acidic vesicle formation relative to a DMSO-treated control [2] | acidic vesicle formation relative to a DMSO-treated control ([3]; concentration of 10 μM, 24 hours) | increase in acidic vesicle formation ([3]; relative to DMSO-treated control (10 μM)) | IC50 (ZIKV) | ZIKV TC50 (SH-SY5Y) | reduction of cellular glycogen compared with the DMSO-only control [4] | reduction of cellular triglycerides compared with the DMSO-only control [4] | IC50 (HCMV) | CC50 at 15 days [5] | increase in the length of the neurite network of dopaminergic TH positive neurons compared to the MPP+ injury alone ([6]; 1 μM and 500 nM) | increase in the number of dopaminergic TH positive neurons compared to MPP+ injury alone ([6]; 1 μM and 500 nM) | decrease in α-syn area per dopaminergic TH positive neuron compared to MPP+ injury alone ([6]; 1 μM, 500 nM and 100 nM)
CCCN(C(=O)c1csc(-c2cnn(-c3ccccc3)c2)n1)C1CCNC1 (racemic) [racemic mixture of compounds 170 and 171] | 3.7 fold | significantly greater acidic vesicle formation | clearly increased | at least 25% | < 15 µM | — | over 75% | > 20% | < 10 µM | > 75 µM |  |  | 
NC[C@H]1CCCN1C(=O)c1csc(-c2cnn(-c3ccccc3)c2)n1 [Compound 156, 1-[(2R)-1-[2-(1-phenyl-1H-pyrazol-4-yl)-1,3-thiazole-4-carbonyl]pyrrolidin-2-yl]methanamine] |  |  |  |  |  |  |  |  |  |  | > 39% | > 18% | > 13%
